Test results published in paper PMC5994920 (European journal of medicinal chemistry, 2017).

Assays:
[1] = test system: U937 human tumor xenografts; assay: In vivo antitumor assay, U937 xenograft model; conditions: for Body weight loss compared with the control group (toxicity): oral, MS275 50 mg/kg/day, 11a 100 mg/kg/day
[2] = test system: acetylated histone H3, acetylated histone H4, procaspase-3, cleaved caspase-3 and cleaved PARP; assay: Western blot analysis in HL60 cells; format: cell-based, human; conditions: 48 h treatment
[3] = test system: HCT116 human tumor xenografts; assay: In vivo antitumor assay, HCT116 xenograft model; conditions: oral, 11a 100 mg/kg, SAHA 100 mg/kg, MS275 50 mg/kg
[4] = Intracellular fluid concentration; format: in vitro ADME; conditions: preliminary results, data not shown
[5] = Lip-water partition coefficient; format: physicochemical; conditions: compound concentration in n-octyl alcohol 5 mM

SMILES	Body weight loss ([1]; first experiment, 100 mg/kg/day oral, three days later)	Body weight loss compared with the control group (toxicity) [1]	Levels of procaspase-3, cleaved caspase-3 and cleaved PARP (western blot) [2]	Body weight loss compared with the control group [3]	Level of acetylated histone H3 and acetylated histone H4 (western blot) [2]	Intracellular fluid concentration, times lower than 11a [4]	Detection in water phase in LogP test (water solubility) [5]
Nc1ccccc1NC(=O)c1ccc(CNC(=O)OCc2cccnc2)cc1 [MS275]	serious body weight loss	obvious body weight loss	dramatically reduced the level of procaspase-3 and increased the level of cleaved caspased-3 and cleaved PARP	serious body weight loss was observed			
COc1ccc(C(=O)N[C@@H](Cc2c[nH]c3ccccc23)C(=O)NCc2ccc(C(=O)Nc3ccccc3N)cc2)cc1 [Compound 11a, (S)-4-((3-(1H-indol-3-yl)-2-(4-methoxybenzamido)propanamido)methyl)-N-(2-aminophenyl)benzamide]		This toxicity didn’t appear	dramatically reduced the level of procaspase-3 and increased the level of cleaved caspased-3 and cleaved PARP		markedly increase		
COc1ccc(C(=O)N[C@@H](Cc2c[nH]c3ccccc23)C(=O)NCc2ccc(C(=O)Nc3cc(-c4ccccc4)ccc3N)cc2)cc1 [Compound 56c, (S)-4-((3-(1H-indol-3-yl)-2-(4-methoxybenzamido)propanamido)methyl)-N-(4-amino-[1,1’-biphenyl]-3-yl)benzamide]			could be hardly affected		much less effects	more than 10 times	could hardly detect 56c in water phase
